Data: ChEMBL document CHEMBL1137459, “Synthesis of 3-O-methylviridicatin analogues with improved anti-TNF-alpha properties” (2007)

System: PBMC
Experiment: Inhibition of LPS-stimulated TNFalpha secretion in human PBMC cells at 50 uM after 24 hrs by ELISA
Format: functional
Conditions: not given

| SMILES | inhibition at 50 µM |
| --- | --- |
| CSc1c(-c2ccccc2)c2ccccc2[nH]c1=O | 95% |
| CCc1c(-c2ccccc2)c2ccccc2[nH]c1=O | 50% |
| CNc1c(-c2ccccc2)c2ccccc2[nH]c1=O | 67% |
| Nc1c(-c2ccccc2)c2ccccc2[nH]c1=O | 79% |
| CSc1c(-c2ccccc2)c2cc([N+](=O)[O-])ccc2[nH]c1=O | 94% |
| COc1c(-c2ccccc2)c2ccccc2[nH]c1=O | 67% |

System: PBMC
Experiment: Inhibition of LPS-stimulated TNFalpha secretion in human PBMC cells at 10 uM after 24 hrs by ELISA
Format: functional
Conditions: not given

| SMILES | inhibition at 10 µM |
| --- | --- |
| CSc1c(-c2ccccc2)c2ccccc2[nH]c1=O | 78% |
| CCc1c(-c2ccccc2)c2ccccc2[nH]c1=O | 32% |
| CNc1c(-c2ccccc2)c2ccccc2[nH]c1=O | 36% |
| Nc1c(-c2ccccc2)c2ccccc2[nH]c1=O | 29% |
| CSc1c(-c2ccccc2)c2cc([N+](=O)[O-])ccc2[nH]c1=O | 86% |
| COc1c(-c2ccccc2)c2ccccc2[nH]c1=O | 24% |

System: THP-1
Experiment: Inhibition of LPS-stimulated TNFalpha secretion in human THP1 cells at 50 uM after 24 hrs by ELISA
Format: functional
Conditions: THP-1, 24 h

| SMILES | inhibition at 50 µM |
| --- | --- |
| CSc1c(-c2ccccc2)c2ccccc2[nH]c1=O | 93% |
| CCc1c(-c2ccccc2)c2ccccc2[nH]c1=O | 80% |
| COCCN(CCOC)c1c(-c2ccccc2)c2ccccc2[nH]c1=O | 59% |
| CNc1c(-c2ccccc2)c2ccccc2[nH]c1=O | 97% |
| CN(CCO)c1c(-c2ccccc2)c2ccccc2[nH]c1=O | 21% |
| CN(C)C(=O)N1CCN(c2c(-c3ccccc3)c3ccccc3[nH]c2=O)CC1 | 43% |
| COc1c(-c2ccccc2)c2ccccc2[nH]c1=O | 10% |
| CN(C)c1c(-c2ccccc2)c2ccccc2[nH]c1=O | 83% |

System: THP-1
Experiment: Inhibition of LPS-stimulated TNFalpha secretion in human THP1 cells at 10 uM after 24 hrs by ELISA
Format: functional
Conditions: THP-1, 24 h

| SMILES | inhibition at 10 µM |
| --- | --- |
| CSc1c(-c2ccccc2)c2ccccc2[nH]c1=O | 49% |
| CCc1c(-c2ccccc2)c2ccccc2[nH]c1=O | 3% |
| COCCN(CCOC)c1c(-c2ccccc2)c2ccccc2[nH]c1=O | 0% |
| CNc1c(-c2ccccc2)c2ccccc2[nH]c1=O | 50% |
| CN(CCO)c1c(-c2ccccc2)c2ccccc2[nH]c1=O | 0% |
| CN(C)C(=O)N1CCN(c2c(-c3ccccc3)c3ccccc3[nH]c2=O)CC1 | 21% |
| COc1c(-c2ccccc2)c2ccccc2[nH]c1=O | 7% |
| CN(C)c1c(-c2ccccc2)c2ccccc2[nH]c1=O | 0% |
